pIC50: −log10 of the molar value.
How the values were obtained:
MAPK1(ERK2) enzyme = biological target: T1, MAPK1(ERK2) enzyme (Homo sapiens, UniProt P28482); assay: Z-Lyte Kinase Assay of ERK2; type: biochemical; conditions: read-out: Example 18 IC50
T1 construct: purchased Invitrogen PV3313
Summary of the method: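 FRET-based Z-LYTE assay using ERK2 kinase with Ser/Thr3 peptide; compound tested at 0.00046–1 μM final in 2% DMSO. Kinase reaction ran 1 h at 25-30° C, followed by 1 h development. The coumarin/fluorescein emission ratio (445/520 nm) gave % phosphorylation, and IC50 was fitted from inhibition relative to uninhibited control.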

[1] = tested on: p-RSK (Thr359) in colo205 cells; assay: p-RSK (Thr359) Acumen Assay in Colo205; type: cell-based; conditions: Homo sapiens, COLO 205, 1 hour compound incubation, read-out: Example 19 IC50
Summary of the method: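 Colo205 cells (4000/well, seeded overnight in 10% FBS) were exposed 1 hour at 37° C to compound added from a 3–0.001 μM dilution series in 5% DMSO. Cells were then fixed, permeabilised and immunostained for p-RSK Thr359, with PI counterstain. Acumen cytometry gave the percentage of positive cells, normalised to untreated wells and 3 uM GDC0994 wells, for the IC50 fit.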

T1 sequence (P28482 whole entry): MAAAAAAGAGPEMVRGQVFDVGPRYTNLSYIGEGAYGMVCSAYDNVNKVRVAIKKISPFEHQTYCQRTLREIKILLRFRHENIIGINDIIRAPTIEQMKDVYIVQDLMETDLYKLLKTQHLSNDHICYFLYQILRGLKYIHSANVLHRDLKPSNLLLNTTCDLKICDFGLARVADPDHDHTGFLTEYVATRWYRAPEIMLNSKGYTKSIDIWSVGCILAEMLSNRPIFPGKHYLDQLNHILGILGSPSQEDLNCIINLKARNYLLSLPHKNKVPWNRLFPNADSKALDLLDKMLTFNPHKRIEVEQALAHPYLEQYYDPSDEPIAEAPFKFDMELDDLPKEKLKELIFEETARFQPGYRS

SMILES | pIC50 (MAPK1(ERK2) enzyme) | pIC50 [1]
COC[C@H]1Cn2cc(-c3nc(Nc4ccnn4C)ncc3C)nc2-c2nnc(C(F)(F)c3ccccc3F)n21 [Compound 223] | ≥ 8.30 | ≥ 7.00
Cc1cnc(Nc2ccnn2C)nc1-c1cn2c(n1)-c1nnc(C(F)(F)c3ccccc3Cl)n1[C@H](CF)C2 [Compound 224] | ≥ 8.30 | ≥ 7.00
Cc1cnc(Nc2ccnn2C)nc1-c1cn2c(n1)-c1nnc(C(F)(F)c3ccccc3Cl)n1[C@@H](CF)C2 [Compound 225] | ≥ 8.30 | ≥ 7.00
Cc1cnc(Nc2ccnn2C(F)F)nc1-c1cn2c(n1)-c1nnc(C(F)(F)c3ccccc3F)n1[C@@H](C)C2 [Compound 226] | ≥ 8.30 | ≥ 7.00
C[C@H]1Cn2cc(-c3ccnc(Nc4ccnn4C(F)F)n3)nc2-c2nnc(C(F)(F)c3ccccc3Cl)n21 [Compound 227] | ≥ 8.30 | ≥ 7.00
Cc1cnc(Nc2ccnn2C(F)F)nc1-c1cn2c(n1)-c1nnc(C(F)(F)c3ccccc3Cl)n1[C@@H](C)C2 [Compound 228] | ≥ 8.30 | ≥ 7.00
C[C@@H](CO)Nc1cc(-c2cc3n(c2)CCCn2c-3nnc2C2(C(F)(F)F)CCC2)c(Cl)cn1 [Compound 229, (S)-2-((5-chloro-4-(3-(1-(trifluoromethyl)cyclobutyl)-6,7-dihydro-5H-pyrrolo[1,2-a][1,2,4]triazolo[3,4-c][1,4]diazepin-10-yl)pyridin-2-yl)amino)propan-1-ol] | ≥ 8.30 | ≥ 7.00
CC(C)Nc1cc(-c2cc3n(c2)CCCn2c-3nnc2C2(C(F)(F)F)CCC2)c(Cl)cn1 [Compound 230] | 8.00 to 8.30 | < 7.00
Cc1cnc(Nc2ccnn2C)nc1-c1cc2c3nnc(C4(C(F)(F)F)CCC4)n3ccn2c1 [Compound 231] | ≥ 8.30 | ≥ 7.00
Cc1cn2cc(-c3ccnc(Nc4ccnn4C)n3)cc2c2nnc(C3(C(F)(F)F)CCC3)n12 [Compound 232] | ≥ 8.30 | ≥ 7.00
Cc1cnc(Nc2ccnn2C)cc1-c1cc2n(c1)CCCn1c-2nnc1C1(C(F)(F)F)CC1 [Compound 233] | ≥ 8.30 | ≥ 7.00
Cc1cnc(Nc2ccnn2C)cc1-c1cc2n(c1)CC(C)(C)n1c-2nnc1C(F)(F)C(F)F [Compound 234] | ≥ 8.30 | < 7.00
Cn1nccc1Nc1cc(-c2cc3n(c2)CC2(CC2)n2c-3nnc2C(F)(F)C(F)F)c(F)cn1 [Compound 235] | 8.00 to 8.30 | ≥ 7.00
Cc1cnc(Nc2ccnn2C)nc1-c1cc2c3nnc(C4(C(F)(F)F)CCC4)n3c(C)cn2c1 [Compound 236] | ≥ 8.30 | ≥ 7.00
Cc1cnc(Nc2ccnn2C)cc1-c1cc2n(c1)CCCn1c-2nnc1C1(C(F)(F)F)CCC1 [Compound 237] | ≥ 8.30 | ≥ 7.00
Cc1cnc(Nc2ccnn2C)nc1-c1cc2n(c1)C[C@H](C)n1c-2nnc1C1(C(F)(F)F)CCC1 [Compound 238] | ≥ 8.30 | < 7.00
Cc1cnc(Nc2ccnn2C)nc1-c1cc2n(c1)C[C@@H](C)n1c-2nnc1C1(C(F)(F)F)CCC1 [Compound 239] | ≥ 8.30 | < 7.00
[2H]C([2H])([2H])n1nccc1Nc1cc(-c2cc3n(c2)CCCn2c-3nnc2C2(C(F)(F)F)CCC2)c(C)cn1 [Compound 240] | ≥ 8.30 | ≥ 7.00
Cn1nccc1Nc1cc(-c2cc3n(c2)CCCn2c-3nnc2C2(C(F)(F)F)CCC2)c(F)cn1 [Compound 241] | ≥ 8.30 | < 7.00
Cc1cnc(Nc2ccnn2C)cc1-c1cc2n(c1)CC1(CCC1)n1c-2nnc1C(F)(F)C(F)F [Compound 242] | 8.00 to 8.30 | < 7.00
Cn1nccc1Nc1nccc(-c2cn3c(c2F)-c2nnc(C4(C(F)(F)F)CCC4)n2CCC3)n1 [Compound 243] | ≥ 8.30 | < 7.00
Cn1nccc1Nc1cc(-c2cc3n(c2)CCCn2c(COc4ccccc4F)nnc2-3)c(F)cn1 [Compound 244] | 8.00 to 8.30 | ≥ 7.00
Cn1nccc1Nc1nccc(-c2cn3c(c2Cl)-c2nnc(Cc4ccccc4F)n2CCC3)n1 [Compound 245] | ≥ 8.30 | ≥ 7.00
Cn1nccc1Nc1nccc(-c2cn3c(c2F)-c2nnc(COc4ccccc4F)n2CCC3)n1 [Compound 246] | ≥ 8.30 | ≥ 7.00
Cn1nccc1Nc1cc(-c2cc3n(c2)CC(C)(C)n2c(CCC(F)(F)F)nnc2-3)c(Cl)cn1 [Compound 247] | ≥ 8.30 | ≥ 7.00
Cn1nccc1Nc1cc(-c2cc3n(c2)CCCn2c-3nnc2C2(C(F)(F)F)CCC2)c(C#N)cn1 [Compound 248] | 8.00 to 8.30 | < 7.00
Cn1nccc1Nc1cc(-c2cc3n(c2)CC(C)(C)n2c-3nnc2C(F)(F)C(F)F)c(Cl)cn1 [Compound 249] | 8.00 to 8.30 | ≥ 7.00

SMILES | pIC50 (MAPK1(ERK2) enzyme) | pIC50 [1]
Cc1cnc(Nc2ccnn2C)nc1-c1cc2n(c1)CC1(CC1)n1c-2nnc1C1(C(F)(F)F)CCC1 [Compound 250] | ≥ 8.30 | ≥ 7.00
Cc1cnc(Nc2ccnn2C)nc1-c1cc2n(c1)CCC(C)(C)n1c-2nnc1C1(C(F)(F)F)CC1 [Compound 251] | ≥ 8.30 | ≥ 7.00
Fc1ccccc1OCc1nnc2n1CCCn1cc(-c3cc(NC4CC4)ncc3C(F)(F)F)cc1-2 [Compound 252] | < 8.00 | < 7.00
Cn1nccc1Nc1cc(-c2cc3n(c2)CC2(CCC2)n2c(CCC(F)(F)F)nnc2-3)c(Cl)cn1 [Compound 253] | ≥ 8.30 | ≥ 7.00
Cn1nccc1Nc1cc(-c2cc3n(c2)CC2(CC2)Cn2c(CCC(F)(F)F)nnc2-3)c(Cl)cn1 [Compound 254] | ≥ 8.30 | ≥ 7.00
Cn1nccc1Nc1cc(-c2cc3n(c2)CCC2(CC2)n2c(CCC(F)(F)F)nnc2-3)c(Cl)cn1 [Compound 255] | ≥ 8.30 | < 7.00
C[C@H]1Cn2cc(-c3cc(Nc4ccnn4C)ncc3Cl)cc2-c2nnc(C3(C(F)(F)F)CCC3)n21 [Compound 256] | ≥ 8.30 | ≥ 7.00
Cn1nccc1Nc1nccc(-c2cn3c(c2Cl)-c2nnc(COc4ccccc4F)n2CCC3)n1 [Compound 257] | 8.00 to 8.30 | ≥ 7.00
Cc1cnc(Nc2ccnn2C)cc1-c1cc2n(c1)CC1(CC1)Cn1c-2nnc1C1(C(F)(F)F)CCC1 [Compound 258] | ≥ 8.30 | ≥ 7.00
Cn1nccc1Nc1cc(-c2cc3n(c2)CC2(CC2)n2c-3nnc2C2(C(F)(F)F)CCC2)c(Cl)cn1 [Compound 259] | 8.00 to 8.30 | ≥ 7.00
Cn1nccc1Nc1cc(-c2cc3n(c2)C(C(F)F)Cn2c-3nnc2C(F)(F)C(F)F)c(Cl)cn1 (stereo not drawn) [Compound 260] | 8.00 to 8.30 | < 7.00
Cn1nccc1Nc1cc(-c2cc3n(c2)CCCCn2c-3nnc2C2(C(F)(F)F)CCC2)c(Cl)cn1 [Compound 261] | < 8.00 | ≥ 7.00
C[C@H]1CCn2cc(-c3cc(Nc4ccnn4C)ncc3Cl)cc2-c2nnc(C3(C(F)(F)F)CCC3)n21 [Compound 262] | 8.00 to 8.30 | ≥ 7.00
Cc1cnc(Nc2ccnn2C(F)F)cc1-c1cc2n(c1)CCCn1c-2nnc1C1(C(F)(F)F)CCC1 [Compound 263] | ≥ 8.30 | ≥ 7.00
Cc1cnc(Nc2ccnn2C)nc1-c1cc2n(c1)CC(F)(F)Cn1c-2nnc1C1(C(F)(F)F)CCC1 [Compound 264] | ≥ 8.30 | < 7.00
CC[C@H]1Cn2cc(-c3nc(Nc4ccnn4C)ncc3C)cc2-c2nnc(C(F)(F)c3ccccc3F)n21 [Compound 265] | < 8.00 | < 7.00
Cn1nccc1Nc1cc(-c2cc3n(c2)CC(F)(F)Cn2c-3nnc2C2(C(F)F)CCC2)c(Cl)cn1 [Compound 266] | ≥ 8.30 | ≥ 7.00
Cn1nccc1Nc1cc(-c2cc3n(c2)[C@H]2CC[C@H](C2)n2c-3nnc2C2(C(F)(F)F)CCC2)c(Cl)cn1 [Compound 267] | < 8.00 | < 7.00
Cn1nccc1Nc1cc(-c2cc3n(c2)CC2(CC2)Cn2c-3nnc2C2(C(F)(F)F)CCC2)c(Cl)cn1 [Compound 268] | ≥ 8.30 | ≥ 7.00
COc1cc(Nc2cc(-c3cc4n(c3)CCCn3c-4nnc3C3(C(F)(F)F)CCC3)c(Cl)cn2)n(C)n1 [Compound 269] | 8.00 to 8.30 | < 7.00
Cn1nccc1Nc1cc(-c2cc3n(c2)C(C(F)(F)F)Cn2c-3nnc2C(F)(F)C(F)F)c(Cl)cn1 (stereo not drawn) [Compound 270] | < 8.00 | ≥ 7.00
Cn1nccc1Nc1cc(-c2cc3n(c2)CCCn2c-3nnc2C2(C(F)(F)F)CCC2)c(C(F)(F)F)cn1 [Compound 271] | 8.00 to 8.30 | ≥ 7.00
Cn1nccc1Nc1cc(-c2cc3n(c2)CCCn2c(COc4ccccc4F)nnc2-3)c(C(F)(F)F)cn1 [Compound 272] | < 8.00 | ≥ 7.00
Cn1nccc1Nc1nccc(-c2cc3n(c2)C[C@H](C(F)(F)F)n2c-3nnc2C(F)(F)c2ccccc2F)n1 [Compound 273] | 8.00 to 8.30 | < 7.00
FC[C@H]1Cn2cc(-c3cc(NN4CCOCC4)ncc3Cl)cc2-c2nnc(C(F)(F)c3ccccc3F)n21 [Compound 274] | < 8.00 | ≥ 7.00
Cc1cnc(N[C@@H](C)CO)nc1-c1cc2n(c1)CCCn1c-2nnc1C1(C(F)(F)F)CCC1 [Compound 275, (S)-2-((5-methyl-4-(3-(1-(trifluoromethyl)cyclobutyl)-6,7-dihydro-5H-pyrrolo[1,2-a][1,2,4]triazolo[3,4-c][1,4]diazepin-10-yl)pyrimidin-2-yl)amino)propan-1-ol] | ≥ 8.30 | ≥ 7.00
C[C@@H](CO)Nc1ncc(Cl)c(-c2cc3n(c2)CCCn2c-3nnc2C2(C(F)(F)F)CCC2)n1 [Compound 276] | ≥ 8.30 | ≥ 7.00
